Laboratory results taken from US11293911B2, “Multi-phase liquid composition, device for measuring permeability of drugs, and method for measuring permeability of drugs” (priority 2017, dated 2022).
Where two headings read alike, the source gives them in different places.

Legend:
in vitro [1] = type: in vitro ADME; conditions: for Papp: not told, read-out: Permeability according to examples
Experimental: A DOPC lipid dissolved in chloroform and commercially available was collected in a glass vial, and chloroform was removed by blowing nitrogen.
The lipid film was left in the glass vial, to which the organic phase (1:1 (v/v) mixture of squalane and silicone oil (AR20)) was added, and then sonication was performed for 10-15 minutes to uniformly disperse the lipid in the oil.
Finally, an oil solution in which the lipid was dissolved (DOPC concentration: 4 mg/ml) was obtained.
Then, distilled water was added to a UV cuvette and the prepared lipid solution was added thereon.
At this time, the process of producing the lipid bilayer was performed by adding a small amount of fluorescently labeled lipid and observing it through a fluorescence microscope.
At this time, a magnetic stirring bar is placed under the UV cuvette and the lower water layer is continuously stirred during the measurement. This makes it unnecessary to consider the time when the drug passes through the lipid bilayer and diffuses to the area irradiated with UV.
The R2 value was calculated in order to determine how well the concentration and absorbance correlate at each wavelength, and the wavelength at which this value exceeds 0.99 was irradiated in the experiment.
More specifically, in FIG. 3, CA(t) means the concentration of an acceptor solution over time (where the first aqueous phase is located under the cuvette, where the drug reaches through the first lipid bilayer) and Ceq means the equilibrium concentration of the acceptor solution droplet (serving as a donor solution to provide a drug), and the acceptor solution, and is calculated by the following General Formula 1. Ceq=CD(0)VD/(VD+VA) [General Formula 1]
In General Formula 1, VA and VD are respectively the volume of a first aqueous phase (acceptor) and the volume of a second aqueous phase (donor, droplet), and CD(0) represents the drug concentration of the initial aqueous solution droplet.

in vitro [2] = conditions: PAMPA
Experimental: Subsequently, the drug concentration of the portion corresponding to the cell membrane inside (acceptor) is obtained by HPLC or UV spectroscopy, from which the membrane permeability of the corresponding drugs is calculated.

[3] = DOPC lipid bilayer, organic phase 1:1 (v/v) squalane and silicone oil (AR20), 1 μl donor droplet, real-time UV absorbance of stirred acceptor water layer

Row | Papp (in vitro [1]; [3]) [×10⁻⁶ cm/s] | Papp (in vitro [2]) [×10⁻⁶ cm/s] | Papp (in vitro [1]) [×10⁻⁶ cm/s] | Permeability to the lipid bilayer (in words) (in vitro [1]; DOPC lipid bilayer, method of the example) | SMILES
1 | 113 | 3.5 | – | – | CC(=O)Nc1ccc(O)cc1 [Acetaminophen]
2 | – | – | 200 | – | Cc1cc(=O)n(-c2ccccc2)n1C [Antipyrine]
3 | 7.2 | – | – | very low permeability | CN/C(=N/CCSCc1nc[nH]c1C)NC#N [Cimetidine]

Row | SMILES | Papp (in vitro [1]; [3]) [×10⁻⁶ cm/s] | Papp (in vitro [2]) [×10⁻⁶ cm/s] | Papp (in vitro [1]) [×10⁻⁶ cm/s] | Permeability to the lipid bilayer (in words) (in vitro [1]; DOPC lipid bilayer, method of the example)
4 | Cn1c(=O)c2c(ncn2C)n(C)c1=O [Caffeine] | 248 | – | – | –
